“Also recorded” adds a separate entry of the source.
Tested on: LM2-4luc lymphatic metastases in SCID mice
Experiment: experimental LM2-4luc lymphatic metastasis model (IV)
Assay type: in vivo, human LM2-4luc cells in CB-17 SCID mice
Details: n = 12; for progression of lymphatic metastases (bioluminescence): VT 250 ng/2d, SU pretreatment, Kruskal–Wallis, Fig2F–H
From the text: (C and G) Photographs of typical metastases in the lungs and caudal lymphatics, respectively. […] Geometric means ± 95%CI are depicted in (D and H); P values were derived by one-way ANOVA (D) and Kruskal–Wallis test (H). […] TEXT PRINTED IN THE PICTURE: (A) Vasculotide (VT): Hazard ratio = 0.13 (95% CI, 0.03 to 0.63) | (A) SU+VT: Hazard ratio = 0.19 (95% CI, 0.04 to 0.81) DOUBTS OF THE COPYIST ABOUT THIS PICTURE: Vasculotide (VT), Hazard ratio: small print; 0.13 could be 0.15 or 0.18, and the CI limits 0.03 and 0.63 are uncertain in the digits 3/5/6/8 / SU+VT, Hazard ratio: small print; 0.19 could be 0.18 or 0.16, and the CI limits 0.04 and 0.81 are uncertain in the digits / Panel A: each hazard ratio is printed under a pair of legend entries (Vehicle / Vasculotide (VT), and Sunitinib (SU) / SU+VT). Assigning it to the VT-treated arm of each pair is my assumption.
In vivo experiments were performed in strict accordance with protocols approved by the Sunnybrook Research Institute Animal Care Committee, accredited by the Canadian Council of Animal Care. All surgical, imaging, and euthanasia procedures were performed under inhaled isoflurane anesthesia. Experimental metastasis models involved injections of 10^6 tumor cells, suspended in 200 μl serum-free DMEM, into the mouse tail vein. LM2-4^luc implantations were performed on 6 to 8-week-old female CB-17 SCID mice (Charles River Canada). […]
For in vivo BI: Mice were injected intraperitoneally with 150mg/kg luciferin (Promega) 10 minutes prior to and anesthetized with isofluorane just before luminescent pseudocolor imaging (uniform settings: CCD camera locked at -105 °C, exposure=60s, f/1, subject size=1.5cm, bin=8, FOV=23.2cm, full image correction) using the IVIS 200 Imaging System (Caliper/PerkinElmer). Using the Living Image software (v2.50.1, Xenogen), weekly images were analyzed under uniform color range on grayscale photographic overlay. Total fluxes (photons/sec) were quantified within consistent regions of interest and statistically compared ideally at a timepoint before any deaths have occurred. […]

Molecule | progression of lymphatic metastases (bioluminescence) (listed as SU) | progression of lymphatic metastases (bioluminescence) | survival rates (VT, Fig2E, listed as VT)
CCN(CC)CCNC(=O)c1c(C)[nH]c(/C=C2\C(=O)Nc3ccc(F)cc32)c1C [sunitinib, reference compound] | did not similarly promote lymphatic metastases; also recorded: did not accelerate their progression |  | 
CHHHRHSF [Vasculotide, 4-armed maleimide-functionalized polyethylene glycol (PEG) backbone to link together four cysteine-capped T7 peptides, that is, CHHHRHSF] |  | no significant effect on survival rates (Fig2E) or the progression of lymphatic metastases | no significant effect on survival rates

Source: article PMC4459817, “Vasculotide reduces endothelial permeability and tumor cell extravasation in the absence of binding to or agonistic activation of Tie2” (EMBO Molecular Medicine, 2015)
